From publication PMC6964270, “Co-Prodrugs of 7-Ethyl-10-hydroxycamptothecin and Vorinostat with in Vitro Hydrolysis and Anticancer Effects” (ACS Omega, 2019) come the findings set out here.

Structures are written as SMILES.

The test system of series [1] is A549 cell line. Kind of series: In vitro cytotoxicity, SRB assay, A549. The series is classed as cell-based. The note with it: Homo sapiens, 72 h, three independent determinations, read-out: IC50 (mean ± SD) A549. (In general: Sulforhodamine B stains cellular protein and so reports cell mass.)
For series [2], the system named is HCT116 cell line. The series is described as follows: In vitro cytotoxicity, SRB assay, HCT116. The note with it: Homo sapiens, HCT-116, 72 h, three independent determinations, read-out: IC50 (mean ± SD) HCT-116. The series is classed as cell-based.
The nature of series [3]: In vitro degradation and release of co-prodrugs in PBS pH 7.4 (HPLC). The class given is physicochemical. The note with it: pH 7.4 PBS, 37 °C; for formation percentage of SN38: 24 h later. The protocol:
(§1) Chromatographic detection was carried out by using Agilent 1200 high-performance liquid chromatography (HPLC, Agilent, Palo Alto, CA) with a Diamonsil C18 (250 mm × 4.6 mm) column. The detection was conducted at 254 nm (UV detector) with the column temperature at room temperature. The sample volume for each injection was 50 μL. The gradient elution was applied with a mobile phase of acetonitrile (ACN) containing 0.1% formic acid and water containing 0.1% formic acid with a constant flow rate of 1 mL/min: 0–15 min (5% ACN to 95% ACN), 15–25 min (95% ACN). The external standard method was established by HPLC in order to determine the content of each compound.
SN38-SAHA co-prodrug solutions with a concentration of 100 μM/L were diluted to 0.05 μM/L with 10 mM PBS buffer (pH 7.4/6.0). After incubation at 37 °C for 0.5, 1, 2, 3, 4, 6, 12, 24, and 48 h, the areas of SN38-SAHA co-prodrugs and other species were detected by HPLC as well. Then each compound was calculated by the concentration–area standard curve, which was obtained by the external standard method.

A short description of series [4]: In vitro degradation and release of co-prodrugs in human plasma (HPLC). The series is classed as in vitro ADME. As to conditions: male, 37 °C, read-out: t1/2 of co-prodrug in plasma (converted).
Text: SAHA was synthesized before. SN-38 was purchased from Shanghai Puyi Chemical Co., Ltd. Di-tert-butyl dicarbonate ((Boc)2O), 4-dimethylaminopyridine (DMAP), 1,1′-carbonyl-diimidazole (CDI), and N,N′-diisopropylcarbodiimide (DIC) were all purchased from Energy Chemical Reagent Co. ( Shanghai, China). The different amino acids were purchased from Meryer Chemical Reagent Co. (Shanghai, China). CH2Cl2 was dried and redistilled before use. All chemical reagents used were of analytical-grade quality. Mouse plasma was taken from KM mouse (male, 6 weeks old). Human plasma was donated by an adult.
as §1
SN38-SAHA co-prodrug solutions with a concentration of 100 μM/L were diluted to 0.1 μM/L by plasma (human/mouse). After incubation at 37 °C for 0.5, 1, 2, 3, 4, and 6 h, 50 μL of reaction mixture was quenched with 50 μL of cold ACN and centrifuged at 30000 rpm × 5 min. The supernatant (50 μL) was detected by HPLC. Then each compound was calculated by the concentration–area standard curve, which was obtained by the external standard method.

Usually IC50 stands for the concentration that gives 50% inhibition. `CCc1c2c(nc3ccc(O)cc13)-c1cc3c(c(=O)n1C2)COC(=O)[C@]3(O)CC` [SN38, 7-Ethyl-10-hydroxycamptothecin]: the IC50 came out at 45.4 ± 4.7 nM in series [1] and 55.1 ± 10 nM in series [2].
For the compound `CCc1c2c(nc3ccc(O)cc13)-c1cc3c(c(=O)n1C2)COC(=O)[C@@]3(CC)OC(=O)CCCNC(=O)ONC(=O)CCCCCCC(=O)Nc1ccccc1` [3c], the results for the concentration for half-maximal inhibition (IC50) in series [1] and in series [2] were 663 ± 24.3 nM and 760 ± 30.9 nM, respectively. The “formation percentage of SN38” value in series [3] is “almost have no SN38 generated”. Also, the half-life at 0.1 μM/L in series [4] is 5 h.
In the case of `CCc1c2c(nc3ccc(O)cc13)-c1cc3c(c(=O)n1C2)COC(=O)[C@@]3(CC)OC(=O)CCCCCNC(=O)ONC(=O)CCCCCCC(=O)Nc1ccccc1` [3d], the half-inhibitory concentration (IC50) is 3100 ± 116 nM in series [1] and 3010 ± 251 nM in series [2]. In addition, in series [3], the “formation percentage of SN38” value is recorded as “almost have no SN38 generated”. Besides, the half-life at 0.1 μM/L in series [4] was 5 h.
For `CCc1c2c(nc3ccc(O)cc13)-c1cc3c(c(=O)n1C2)COC(=O)[C@@]3(CC)OC(=O)CCNC(=O)ONC(=O)CCCCCCC(=O)Nc1ccccc1` [3b], the IC50 in series [1] was determined as 322 ± 32.5 nM; in series [2] it was 428 ± 20.5 nM. The “formation percentage of SN38” value in series [3] was determined as 3.4%. Also, the half-life at 0.1 μM/L in series [4] was 3 h.
As for `CCc1c2c(nc3ccc(O)cc13)-c1cc3c(c(=O)n1C2)COC(=O)[C@@]3(CC)OC(=O)CNC(=O)ONC(=O)CCCCCCC(=O)Nc1ccccc1` [3a], the IC50 in series [1] worked out at 87.3 ± 7.9 nM; in series [2] it was 113 ± 10.8 nM. Besides, the half-life at 0.05 μM/L in series [3] (PBS buffer, read-out: half-life (t1/2) of co-prodrug in PBS (converted)) was 2 h. In series [3], the “formation percentage of SN38” value stood at 26.3%. Besides, the half-life at 0.1 μM/L in series [4] was 1 h.
